Data from paper PMC9788418, “Design, Synthesis and Biological Evaluation of Syn and Anti-like Double Warhead Quinolinones Bearing Dihydroxy Naphthalene Moiety as Epidermal Growth Factor Receptor Inhibitors with Potential Apoptotic Antiproliferative Action” (Molecules, 2022).

Assays:
Type in all cases: cell-based, human
[1] = system: four tested cancer cell lines (A-549, MCF-7, Panc-1, HT-29); assay: Antiproliferative assay, average over the four cell lines; conditions: for GI50: Homo sapiens, mean of the four cancer cell lines; for fold less potent than 4a (GI50): relative to 4a
Experimental: The newly synthesized compounds were tested for antiproliferative activity against four different types of cancer cells: A-549 (epithelial cancer cell line), MCF-7 (breast cancer cell line), Panc-1 (pancreas cancer cell line), and HT-29 (colon cancer cell line).
After 24 h, medium was removed from the plates and the compounds in (in 0.1% DMSO) were added (in 200 μL medium to yield a final concentration of 0.1% v/v) to the wells of plates. A single compound was designated with four wells followed by incubation of plates for 96h at 37°C. After incubation, medium was removed completely from the plates followed by addition of MTT (0.4 mg/mL in medium) to each well and subsequent incubation of plates for 3h. MTT (along with the medium) was removed and DMSO (150μL) was added to each well of the culture plates, followed by vortexing and subsequent measurement of absorbance (at 540 nm) using microplate reader. The data are shown as percentage inhibition of proliferation in comparison with controls containing 0.1% 4.2.1.2. Assay for antiproliferative effect
To explore the antiproliferative potential of compounds MTT assay was performed according to previously reported procedure using different cell lines to explore the antiproliferative potential of compounds propidium iodide fluorescence assay was performed using different cell lines. To calculate the total nuclear DNA, a fluorescent dye (propidium iodide, PI) is used which can attach to the DNA, thus offering a quick and precise technique. PI cannot pass through the cell membrane and its signal intensity can be considered as directly proportional to quantity of cellular DNA. Cells whose cell membranes are damaged or have changed permeability are counted as dead ones. The assay was performed by seeding the cells of different cell lines at a density of 3000-7500 cells/well (in 200µl medium) in culture plates followed by incubation for 24h at 37 °C in humidified 5% CO2/95% air atmospheric conditions. The medium was removed; the compounds were added to the plates at 10 µM concentrations (in 0.1% DMSO) in triplicates, followed by incubation for 48 h. DMSO (0.1%) was used as control. After incubation, medium was removed followed by the addition of PI (25 µl, 50µg/mL in water/medium) to each well of the plates. At -80 °C, the plates were allowed to freeze for 24 h, followed by thawing at 25 °C. A fluorometer (Polar-Star BMG Tech) was used to record the readings at excitation and emission wavelengths of 530 and 620 nm for each well. The percentage cytotoxicity of compounds was calculated using the following formula:
Where ATC= Absorbance of treated cells and AC= Absorbance of control. Erlotinib was used as positive control in the assay.

[2] = Cell viability assay (MTT) on normal cell line; conditions: human, MCF-10A mammary gland epithelial cells, four days
Experimental: A cell viability test was performed using MCF-10A (human mammary gland epithelial) cell line to investigate the effect of 4a–e and 7a–e on normal cell lines. In this investigation, a concentration of 50 µM of the studied compound is employed for four days, after which cell viability is assessed.
(§1) 4.2. Biological evaluation
4.2.1. Cytotoxic activity using MTT Assay and evaluation of IC50
MTT assay was carried out to study the effect of compounds on mammary epithelial cells (MCF-10A). The medium in which cells were propagated contained Dulbecco's modified Eagle's medium (DMEM)/ Ham's F-12 medium (1:1) supplemented with epidermal growth factor (20 ng/mL), hydrocortisone (500 ng/mL), insulin (10 μg/mL), 2 mM glutamine and 10% foetal calf serum. After every 2-3 days, the cells were passaged using trypsin ethylenediamine tetra acetic acid (EDTA). The cells were seeded at a density of 10^4 cells mL-1 in flat-bottomed culture plates containing 96 wells each. After 24 h, medium was removed from the plates and the compounds in (in 0.1% DMSO) were added (in 200 μL medium to yield a final concentration of 0.1% v/v) to the wells of plates. A single compound was designated with four wells followed by incubation of plates for 96h at 37°C. After incubation, medium was removed completely from the plates followed by addition of MTT (0.4 mg/mL in medium) to each well and subsequent incubation of plates for 3h. MTT (along with the medium) was removed and DMSO (150μL) was added to each well of the culture plates, followed by vortexing and subsequent measurement of absorbance (at 540 nm) using microplate reader. […]

[3] = system: HT-29 (colon cancer cell line); assay: Antiproliferative assay; conditions: Homo sapiens, read-out: Antiproliferative Activity IC50 ± SEM, HT-29
Experimental: (§2) 4.2.1.2. Assay for antiproliferative effect
(§3) To explore the antiproliferative potential of compounds MTT assay was performed according to previously reported procedure using different cell lines to explore the antiproliferative potential of compounds propidium iodide fluorescence assay was performed using different cell lines. To calculate the total nuclear DNA, a fluorescent dye (propidium iodide, PI) is used which can attach to the DNA, thus offering a quick and precise technique. PI cannot pass through the cell membrane and its signal intensity can be considered as directly proportional to quantity of cellular DNA. Cells whose cell membranes are damaged or have changed permeability are counted as dead ones. The assay was performed by seeding the cells of different cell lines at a density of 3000-7500 cells/well (in 200µl […]
(§4) atmospheric conditions. The medium was removed; the compounds were added to the plates at 10 µM concentrations (in 0.1% DMSO) in triplicates, followed by incubation for 48 h. DMSO (0.1%) was used as control. After incubation, medium was removed followed by the addition of PI (25 µl, 50µg/mL in water/medium) to each well of the plates. At -80 °C, the plates were allowed to freeze for 24 h, followed by thawing at 25 °C. A fluorometer (Polar-Star BMG Tech) was used to record the readings at excitation and emission wavelengths of 530 and 620 nm for each well. The percentage cytotoxicity of compounds was calculated using the following formula:
(§5) Where ATC= Absorbance of treated cells and AC= Absorbance of control. […]
(§6) positive control in the assay.

[4] = system: MCF-7 (breast cancer cell line); assay: Antiproliferative assay; conditions: Homo sapiens, MCF7; read-out: Antiproliferative Activity IC50 ± SEM, MCF-7
Experimental: as §2, §3, §4, §5, §6

[5] = system: A-549 (epithelial cancer cell line); assay: Antiproliferative assay; conditions: Homo sapiens, A549; read-out: Antiproliferative Activity IC50 ± SEM, A-549
Experimental: as §2, §3, §4, §5, §6

[6] = system: Panc-1 (pancreas cancer cell line); assay: Antiproliferative assay; conditions: Homo sapiens, PANC-1; read-out: Antiproliferative Activity IC50 ± SEM, Panc-1
Experimental: as §1
4.2.1. Cytotoxic activity using MTT Assay and evaluation of IC50 […]
cells were seeded at a density of 10^4 cells mL-1 in flat-bottomed culture plates containing 96 wells each. After 24 h, medium was removed from the plates and the compounds in (in 0.1% DMSO) were added (in 200 μL medium to yield a final concentration of 0.1% v/v) to the wells of plates. A single […]
incubation, medium was removed completely from the plates followed by addition of MTT (0.4 mg/mL in medium) to each well and subsequent incubation of plates for 3h. MTT (along with the medium) was removed and DMSO (150μL) was added to each well of the culture plates, followed by vortexing and subsequent measurement of absorbance (at 540 nm) using microplate reader. The data […]
as §2, §3, §4, §5, §6

GI50 [1] [nM] | fold less potent than 4a (GI50) [1] | IC50 [3] [nM] | IC50 [4] [nM] | IC50 [5] [nM] | IC50 [6] [nM] | Structure (SMILES) | viability at 96 h, 50 µM [2] [%]
130 | approximately 4 fold | 137 ± 13 | 127 ± 12 | 123 ± 12 | 135 ± 13 | Cn1c(=O)cc(-n2cc(COc3cccc4cccc(OCc5cn(-c6cc(=O)n(C)c7ccccc67)nn5)c34)nn2)c2ccccc21 [Compound 4e, 4,4′-(((naphthalene-1,8-diylbis(oxy))bis(methylene))bis(1H-1,2,3-triazole-4,1-diyl))-bis-(1-methylquinolin-2(1H)-one)] | 90
65 |  | 67 ± 6 | 65 ± 6 | 63 ± 6 | 67 ± 6 | Cc1ccc2[nH]c(=O)cc(-n3cc(COc4cccc5c(OCc6cn(-c7cc(=O)[nH]c8ccc(C)cc78)nn6)cccc45)nn3)c2c1 [Compound 7b, 4,4′-(((naphthalene-1,5-diylbis(oxy))bis(methylene))bis(1H-1,2,3-triazole-4,1-diyl))-bis-(6-methylquinolin-2(1H)-one)] | 93
134 | approximately 4 fold | 143 ± 14 | 130 ± 13 | 126 ± 13 | 136 ± 13 | Cn1c(=O)cc(-n2cc(COc3cccc4c(OCc5cn(-c6cc(=O)n(C)c7ccccc67)nn5)cccc34)nn2)c2ccccc21 [Compound 7e, 4,4′-(((naphthalene-1,5-diylbis(oxy))bis(methylene))bis(1H-1,2,3-triazole-4,1-diyl))-bis-(1-methylquinolin-2(1H)-one)] | 85

Structure (SMILES) | GI50 [1] [nM] | fold less potent than 4a (GI50) [1] | IC50 [3] [nM] | IC50 [4] [nM] | IC50 [5] [nM] | IC50 [6] [nM] | viability at 96 h, 50 µM [2] [%]
C#Cc1cccc(Nc2ncnc3cc(OCCOC)c(OCCOC)cc23)c1 [Erlotinib, reference compound] | 33 |  |  |  |  |  | 
